# Assays:
# [1] = Acute toxicity test, oral; design: species or system Female ICR-mice; details: mouse, in vivo, mortality observed for a week, Litchfield-Wilcoxon
# Protocol: Female ICR-mice of body weight of 20 to 24 g, 5 weeks after birth were used.
# Eight animal per group were kept in a transparent polycage at room temperature of 23°±1° C., and RH of 60 to 70%.
# After minutely pulverizing each one of the present compounds, the pulverized compound was suspended in an aqueous 5% sodium carboxymethylcellulose solution containing 20% of Tween-80. The aqueous suspension was forcibly orally administered by a metal stomach tube, the dose rate having been adjusted by changing the concentration of the present compound in the aqueous suspension.
# In some mortal cases, the rat's spontaneous movement was lowered with the reduction of general tension and the rats died as they were.
# [2] = tested on: peptic ulcer due to pyloric ligation; experiment: Effect on peptic ulcer due to pyloric ligation; format: in vivo, male rats; details: 100 mg/kg, intraperitoneal, rats; for Ulcer coefficient: just after pyloric ligation, 15 hours; for Rate of suppression of ulcer: pyloric ligation, versus control
# Protocol: Six groups (10 animals per group) of male rats weighing 180 to 200 g were subjected to ligation of their pyloruses under ether-anesthesia after fasting for 48 hours according to the method of Shay et al. (refer to Gastroenterology, 5, page 43 (1945)).
# Just after subjecting to ligation, each of the present compound suspended in an aqueous physiological saline solution was intraperitoneally administered to each rat, the control being injected with an aqueous physiological saline solution. Then, after 15 hours of fasting without taking water, the rats were sacrificed with ether and their stomachs were removed to examine under a microscope for anatomy. The length and width of the thus-formed ulcer in the stomach were determined and expressed by the product (mm^2), and the total sum of the products was represented as the ulcer coefficient.
# [3] = tested on: duodenal peptic ulcer due to acetic acid; experiment: Effect on peptic ulcer due to acetic acid (duodenal ulcer); format: in vivo, male rats; details: 100 mg/kg, oral, rats; for Ulcer coefficient: 3 times a day for 10 days from third day; for Rate of suppression of ulcer: 3 times a day for 10 days, versus control
# From the text: The inventors of the present invention, taking into account of these situations, added to the above-mentioned method of evaluation the effect of accelerating the cure of the peptic ulcer by orally administering the present compound and a commercialized anti-peptic ulcer medicine, respectively to rats to which duodenal peptic ulcer due to acetic acid (refer to Okabe, 1971) considered to be most closely resembling to human peptic ulcer has been artificially formed.
# Following the method of Okabe et al (refer to Amer. J. Dig. Dis., 16, […]), 6 groups (15 animals per group) of male rats weighing 240 to 260 g were subjected to laparotomy under ether anesthesia in which a metal circular frame was placed on the serosa at a distance of 5 to 7 mm from the duodenal pylorus, 0.06 ml of glacial acetic acid was poured into the frame. After 30 seconds, the liquid containing the acetic acid was removed and then the frame was removed. The test compound suspended in an aqueous 0.5% solution of carboxymethylcellulose was orally administered to the rat 3 times a day from the third day of the operation for consecutive 10 days. To the control group, only the solution of carboxymethylcellulose was administered. After the administration was over, the rats were sacrificed with ether, and their duodenum was removed to observe under a microscope for anatomy. The length and width of the thus-formed ulcer were measured and their product (expressed with mm^2) was recorded as the ulcer coefficient.
# By the way, the above-mentioned experimental model has been highly evaluated internationally because the thus-formed ulcer is scarcely curable in nature and the histopathological change of the ulcer lesion closely resembles to that of human chronic ulcer as compared to the method of cautery-ulcer (refer to Skoryna, 1958) and the method of crumping-cortisone (refer to Umehara, 1965).
# peptic ulcer = details: cited from earlier work
Structure (SMILES),LD50 at 168 h [1] [mg/kg],Ulcer coefficient [2] [mm^2],Rate of suppression of ulcer [2],Ulcer coefficient [3] [mm^2],Rate of suppression of ulcer [3] [%],Side effects (peptic ulcer),"Accelerating effect on ulcer-curing (peptic ulcer; commercialized medicine, background)"
"COc1cc(C2NC(=O)CCS2)cc(OC)c1OC (centres unmarked) [Compound 1, 2-(3,4,5-trimethoxyphenyl)-1,3-perhydrothiazine-4-one]",5400,9.3,74.9,2.5,67.1,–,–
"COc1ccc(C2NC(=O)CCS2)cc1OC (centres unmarked) [Compound 2, 2-(3,4-dimethoxyphenyl)-1,3-perhydrothiazine-4-one]",> 8000,1.9,94.3,2.0,73.6,–,–
"COc1ccccc1C1NC(=O)CCS1 (centres unmarked) [Compound 3, 2-(2-methoxyphenyl)-1,3-perhydrothiazine-4-one]",> 8000,2.4,93.5,1.5,80.2,–,–
"COc1ccc(C2NC(=O)CCS2)cc1 (centres unmarked) [Compound 4, 2-(4-methoxyphenyl)-1,3-perhydrothiazine-4-one]",> 8000,2.0,94.5,1.3,82.8,–,–
"CC(C)=CCCC(C)=CCCC(C)=CCCC(=O)OCC=C(C)CCC=C(C)C [Positive control, 3,7dimethyl-2,6-octadienyl-5,9,13-trimethyl-4,8,12-tetradecatrienoate, reference compound]",–,32.5,12.2,6.1,20.0,–,–
CC1(C)[C@@H](OC(=O)CCC(=O)O)CC[C@]2(C)[C@H]3C(=O)C=C4[C@@H]5C[C@@](C)(C(=O)O)CC[C@]5(C)CC[C@@]4(C)[C@]3(C)CC[C@@H]12 [carbenoxolone],–,–,–,–,–,aldosterone-like side effects to cause hypertension and weakening of muscular function,excellent accelerating effect on the ulcer-curing
